In patent publication US9850283B2, “Macrocyclic inhibitors of the PD-1/PD-L1 and CD80(B7-1)/PD-L1 protein/protein interactions” (BRISTOL-MYERS SQUIBB COMPANY, priority 2013, dated 2017):
pIC50: −log10 of the molar value. Starred links: 1 amine or outer side, 2 acyl side, 3 side chain; linkers in the order of their positions; H or OH if unused. Positions of bridges follow the written chain, without caps; N, C: chain ends. Non-standard residues stand in square brackets, D forms with d. Residues, ends and D or L forms follow the SMILES beside them. ξ: configuration not given here. *: point of attachment. ξPro(4S-NH2) = O=C(C1C[C@H](N[*:3])CN1[*:1])[*:2]; Phe(4-CHF2) = N[C@@H](Cc1ccc(C(F)F)cc1)C(=O)O; Trp(7-aza) = N[C@@H](Cc1c[nH]c2ncccc12)C(=O)O; ξTrp(5-F) = NC(Cc1c[nH]c2ccc(F)cc12)C(=O)O; NMeW = CN[C@@H](Cc1c[nH]c2ccccc12)C(=O)O; Pro(4S-NH2) = N[C@@H]1CN[C@H](C(=O)O)C1; Pro(4,4-F2) = O=C(O)[C@@H]1CC(F)(F)CN1; Bta = N[C@@H](Cc1csc2ccccc12)C(=O)O; Cyclobutanecarbonyl = O=C(C1CCC1)*; Hyp = O=C(O)[C@@H]1C[C@@H](O)CN1; ξBta = NC(Cc1csc2ccccc12)C(=O)O; NMeNle = CCCC[C@H](NC)C(=O)O; NMeA = CN[C@@H](C)C(=O)O; Dab = NCC[C@H](N)C(=O)O; Dap = NC[C@H](N)C(=O)O; ξOrn = NCCCC(N)C(=O)O; ξP = O=C(O)C1CCCN1; Sar = CNCC(=O)O

Key:
[1] = molecular target: T1, Human PD-L1/PD-1 (Homo sapiens, UniProt Q9NZQ7); experiment: HTRF PD-1-Ig/PD-L1-His binding assay (human PD-L1); conditions: cluster symbol; read-out: HTRF IC50 cluster
T1 construct: made in house; host or cells: HEK293T
T1 sequence (Q9NZQ7 with tags, fused parts or gaps): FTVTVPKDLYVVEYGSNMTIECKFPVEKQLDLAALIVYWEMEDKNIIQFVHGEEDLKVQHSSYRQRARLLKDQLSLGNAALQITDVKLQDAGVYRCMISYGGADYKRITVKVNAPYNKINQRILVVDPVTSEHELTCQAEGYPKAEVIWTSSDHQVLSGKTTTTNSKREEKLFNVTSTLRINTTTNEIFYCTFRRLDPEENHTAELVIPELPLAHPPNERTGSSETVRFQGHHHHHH
In short: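 Soluble PD-1-Ig binding to PD-L1-His measured by HTRF in dPBS with 0.1% BSA and 0.05% Tween-20. Detection used europium cryptate anti-Ig antibody (1 nM final) and APC anti-His antibody (20 nM final) added on top of the binding reaction.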

[2] = molecular target: T2, LK35.2-hPD-L1 cells / PE-labeled PD-1-Ig (Homo sapiens, UniProt Q9NZQ7); experiment: LK35.2-hPD-L1 cell binding high-content screening assay; assay type: cell-based; conditions: cluster symbol; cell line of CBA not given (LK35.2-hPD-L1 or 293T-hPD-L1); read-out: CBA IC50 cluster
T2 construct: expressed in transfected cells; host or cells: LK35.2 mouse B cell line
T2 sequence (Q9NZQ7 19-290): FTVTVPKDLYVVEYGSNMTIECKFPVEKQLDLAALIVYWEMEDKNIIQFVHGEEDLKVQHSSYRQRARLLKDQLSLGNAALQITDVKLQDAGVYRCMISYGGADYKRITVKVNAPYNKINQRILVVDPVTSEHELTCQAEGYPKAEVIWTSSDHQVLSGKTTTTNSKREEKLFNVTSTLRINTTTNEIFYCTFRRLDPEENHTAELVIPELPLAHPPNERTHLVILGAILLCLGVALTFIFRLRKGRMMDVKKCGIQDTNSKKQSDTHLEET
In short: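 Using overnight-cultured LK35.2-hPD-L1 mouse B cells, compound was co-incubated with phycoerythrin-tagged human PD-1-Ig (final 1 nM) at 37 °C for one hour. Unbound label was removed by triple dPBS washing prior to high-content image acquisition and analysis.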

Compound	pIC50 [1]	pIC50 [2]
CC(C)C[C@@H]1NC(=O)[C@H](Cc2c[nH]cn2)NC(=O)[C@@H]2CCCN2C(=O)[C@H](CC(N)=O)NC(=O)[C@H](C)N(C)C(=O)[C@H](Cc2ccccc2)NC(=O)CSC[C@@H](C(=O)NCC(N)=O)NC(=O)[C@H](CCCNC(=N)N)NC(=O)[C@H](C)N(C)C(=O)[C@H](Cc2ccc(-c3ccccc3)cc2)NC(=O)[C@H](Cc2c[nH]c3ccccc23)NC(=O)[C@H](CO)NC(=O)[C@H](Cc2c[nH]c3ccccc23)NC(=O)CN(C)C1=O [Example 1032] (HELM PEPTIDE1{[O=C(C[*:3])[*:2]].F.[meA].N.P.H.L.[Sar].W.S.W.[O=C([C@H](Cc1ccc(-c2ccccc2)cc1)N[*:1])[*:2]].[meA].R.C.G.[am]}$PEPTIDE1,PEPTIDE1,1:R3-15:R3$$$V2.0)	< 7.52	< 7.13
CC(C)C[C@@H]1NC(=O)[C@H](Cc2cnc[nH]2)NC(=O)[C@@H]2CCCN2C(=O)[C@H](CC(N)=O)NC(=O)[C@H](C)N(C)C(=O)[C@H](Cc2ccccc2)NC(=O)CSC[C@@H](C(=O)NCC(N)=O)NC(=O)[C@H](CCCNC(=N)N)NC(=O)[C@H](C)N(C)C(=O)[C@H](CCNC(=O)C2CCC2)NC(=O)[C@H](Cc2c[nH]c3ccccc23)NC(=O)[C@H](CO)NC(=O)[C@H](Cc2c[nH]c3ccccc23)NC(=O)CN(C)C1=O [Example 1034] ({CH2CO}-F[NMeA]NPHL[Sar]WSW[Dab](Cyclobutanecarbonyl)[NMeA]RCG-NH2; thioether N-14)	< 7.52	< 7.13
CCCC[C@H]1C(=O)N(C)[C@@H](CCCC)C(=O)N[C@@H](CCCNC(=N)N)C(=O)N[C@H](C(=O)NCC(N)=O)CSCC(=O)N[C@@H](Cc2ccc(O)cc2)C(=O)N(C)[C@@H](C)C(=O)N[C@@H](CC(N)=O)C(=O)N2CCC[C@H]2C(=O)N[C@@H](Cc2cnc[nH]2)C(=O)N[C@@H](CC(C)C)C(=O)N2CC(F)(F)C[C@H]2C(=O)N[C@@H](Cc2c[nH]c3ccccc23)C(=O)N[C@@H](CO)C(=O)N[C@@H](Cc2csc3ccccc23)C(=O)N1C [Example 1036] ({CH2CO}-Y[NMeA]NPHL[Pro(4,4-F2)]WS[Bta][NMeNle][NMeNle]RCG-NH2; thioether N-14)	7.52 to 8.17	8.33 to 9.80
CCCC[C@H]1C(=O)N(C)[C@@H](CCCC)C(=O)N[C@@H](CCCNC(=N)N)C(=O)N[C@H](C(=O)NCC(N)=O)CSCC(=O)N[C@@H](Cc2ccc(O)cc2)C(=O)N(C)[C@@H](C)C(=O)N[C@@H](CC(N)=O)C(=O)N2CCC[C@H]2C(=O)N[C@@H](Cc2cnc[nH]2)C(=O)N[C@@H](CC(C)C)C(=O)N2C[C@@H](N)C[C@H]2C(=O)N[C@@H](Cc2c[nH]c3ccccc23)C(=O)N[C@@H](CO)C(=O)N[C@@H](Cc2csc3ccccc23)C(=O)N1C [Example 1037] ({CH2CO}-Y[NMeA]NPHL[Pro(4S-NH2)]WS[Bta][NMeNle][NMeNle]RCG-NH2; thioether N-14)	7.52 to 8.17	8.33 to 9.80
CCCC[C@H]1C(=O)N(C)[C@@H](CCCC)C(=O)N[C@@H](CCCNC(=N)N)C(=O)N[C@H](C(=O)NCC(N)=O)CSCC(=O)N[C@@H](Cc2ccccc2)C(=O)N(C)[C@@H](C)C(=O)N[C@@H](CC(N)=O)C(=O)N2CCC[C@H]2C(=O)N[C@@H](Cc2cnc[nH]2)C(=O)N[C@@H](CC(C)C)C(=O)N(C)CC(=O)N[C@@H](Cc2c[nH]c3ccccc23)C(=O)N[C@@H](CO)C(=O)N[C@@H](Cc2c[nH]c3ncccc23)C(=O)N1C [Example 1038] ({CH2CO}-F[NMeA]NPHL[Sar]WS[Trp(7-aza)][NMeNle][NMeNle]RCG-NH2; thioether N-14)	< 7.52	< 7.13
CCCC[C@H]1C(=O)N(C)[C@@H](CCCC)C(=O)N[C@@H](CCCNC(=N)N)C(=O)N[C@H](C(=O)NCC(N)=O)CSCC(=O)N[C@@H](Cc2ccc(C(F)F)cc2)C(=O)N(C)[C@@H](C)C(=O)N[C@@H](CC(N)=O)C(=O)N2CCC[C@H]2C(=O)N[C@@H](Cc2cnc[nH]2)C(=O)N[C@@H](CC(C)C)C(=O)N2CCC[C@H]2C(=O)N[C@@H](Cc2c[nH]c3ccccc23)C(=O)N[C@@H](CO)C(=O)N[C@@H](Cc2csc3ccccc23)C(=O)N1C [Example 1044] ({CH2CO}-[Phe(4-CHF2)][NMeA]NPHLPWS[Bta][NMeNle][NMeNle]RCG-NH2; thioether N-14)	< 7.52	< 7.13

Second part, the molecule after the results:

pIC50 [1]	pIC50 [2]	Compound
< 7.52	< 7.13	CCCC[C@H]1C(=O)N[C@@H](CCCNC(=N)N)C(=O)N[C@H](C(=O)NCC(N)=O)CSCC(=O)N[C@@H](Cc2ccccc2)C(=O)N(C)[C@@H](C)C(=O)N[C@@H](CC(N)=O)C(=O)N2CCC[C@H]2C(=O)N[C@@H](Cc2cnc[nH]2)C(=O)N[C@@H](CC(C)C)C(=O)N(C)CC(=O)N[C@@H](Cc2c[nH]c3ccccc23)C(=O)N[C@@H](CO)C(=O)N(C)[C@@H](Cc2c[nH]c3ccccc23)C(=O)N(C)[C@@H](CCCC)C(=O)N1C [Example 1031] ({CH2CO}-F[NMeA]NPHL[Sar]WS[NMeW][NMeNle][NMeNle]RCG-NH2; thioether N-14)
< 7.52	< 7.13	CC(C)C[C@@H]1NC(=O)[C@H](Cc2c[nH]cn2)NC(=O)[C@@H]2CCCN2C(=O)[C@H](CC(N)=O)NC(=O)[C@H](C)N(C)C(=O)[C@H](Cc2ccccc2)NC(=O)CSC[C@@H](C(=O)NCC(N)=O)NC(=O)[C@H](CCCNC(=N)N)NC(=O)[C@H](C)N(C)C(=O)[C@H](CNC(=O)C2CCC2)NC(=O)[C@H](Cc2c[nH]c3ccccc23)NC(=O)[C@H](CO)NC(=O)[C@H](Cc2c[nH]c3ccccc23)NC(=O)CN(C)C1=O [Example 1033] ({CH2CO}-F[NMeA]NPHL[Sar]WSW[Dap](Cyclobutanecarbonyl)[NMeA]RCG-NH2; thioether N-14)
7.52 to 8.17	8.33 to 9.80	CCCC[C@H]1C(=O)N(C)[C@@H](CCCC)C(=O)N[C@@H](CCCNC(=N)N)C(=O)N[C@H](C(=O)NCC(N)=O)CSCC(=O)N[C@@H](Cc2ccc(O)cc2)C(=O)N(C)[C@@H](C)C(=O)N[C@@H](CC(N)=O)C(=O)N2CCC[C@H]2C(=O)N[C@@H](Cc2cnc[nH]2)C(=O)N[C@@H](CC(C)C)C(=O)N2C[C@H](O)C[C@H]2C(=O)N[C@@H](Cc2c[nH]c3ccccc23)C(=O)N[C@@H](CO)C(=O)N[C@@H](Cc2csc3ccccc23)C(=O)N1C [Example 1035] ({CH2CO}-Y[NMeA]NPHL[Hyp]WS[Bta][NMeNle][NMeNle]RCG-NH2; thioether N-14)
< 7.52	7.14 to 8.32	CCCC[C@H]1C(=O)N(C)[C@@H](CCCC)C(=O)N[C@@H](CCCNC(=N)N)C(=O)N[C@H](C(=O)NCC(N)=O)CSCC(=O)N[C@@H](Cc2ccccc2)C(=O)N(C)[C@@H](C)C(=O)N[C@@H](CC(N)=O)C(=O)N2CCC[C@H]2C(=O)N[C@@H](Cc2cnc[nH]2)C(=O)N[C@@H](CC(C)C)C(=O)N(C)CC(=O)N[C@@H](Cc2c[nH]c3ccccc23)C(=O)N[C@@H](CO)C(=O)NC(Cc2c[nH]c3ccc(F)cc23)C(=O)N1C (stereo partly shown) [Example 1039] ({CH2CO}-F[NMeA]NPHL[Sar]WS[ξTrp(5-F)][NMeNle][NMeNle]RCG-NH2; thioether N-14)
7.52 to 8.17	8.33 to 9.80	CCCC[C@H]1C(=O)N(C)[C@@H](CCCC)C(=O)N[C@@H](CCCCN)C(=O)N[C@H](C(=O)NCC(N)=O)CSCC(=O)N[C@@H](Cc2ccc(O)cc2)C(=O)N(C)[C@@H](C)C(=O)N[C@@H](CC(N)=O)C(=O)N2CCC[C@H]2C(=O)N[C@@H](Cc2cnc[nH]2)C(=O)N[C@@H](CC(C)C)C(=O)N2CCC[C@H]2C(=O)N[C@@H](Cc2c[nH]c3ccccc23)C(=O)N[C@@H](CO)C(=O)N[C@@H](Cc2csc3ccccc23)C(=O)N1C [Example 1041] ({CH2CO}-Y[NMeA]NPHLPWS[Bta][NMeNle][NMeNle]KCG-NH2; thioether N-14)
8.17 to 9.41	8.33 to 9.80	CCCC[C@H]1C(=O)N(C)[C@@H](CCCC)C(=O)NC(CCCN)C(=O)N[C@H](C(=O)NCC(N)=O)CSCC(=O)N[C@@H](Cc2ccc(O)cc2)C(=O)N(C)[C@@H](C)C(=O)N[C@@H](CC(N)=O)C(=O)N2CCCC2C(=O)N[C@@H](Cc2cnc[nH]2)C(=O)N[C@@H](CC(C)C)C(=O)N2CCC[C@H]2C(=O)N[C@@H](Cc2c[nH]c3ccccc23)C(=O)N[C@@H](CO)C(=O)N[C@@H](Cc2csc3ccccc23)C(=O)N1C (stereo partly shown) [Example 1042] ({CH2CO}-Y[NMeA]N[ξP]HLPWS[Bta][NMeNle][NMeNle][ξOrn]CG-NH2; thioether N-14)
7.52 to 8.17	7.14 to 8.32	C=CCCCC[C@H]1C(=O)N(C)[C@@H](CCCCC=C)C(=O)N[C@@H](CCCNC(=N)N)C(=O)N[C@H](C(=O)NCC(N)=O)CSCC(=O)N[C@@H](Cc2ccccc2)C(=O)N(C)[C@@H](C)C(=O)N[C@@H](CC(N)=O)C(=O)N2CCC[C@H]2C(=O)N[C@@H](Cc2cnc[nH]2)C(=O)N[C@@H](CC(C)C)C(=O)N(C)CC(=O)N[C@@H](Cc2c[nH]c3ccccc23)C(=O)N[C@@H](CO)C(=O)N[C@@H](Cc2c[nH]c3ccccc23)C(=O)N1C [Example 1043]
7.52 to 8.17	7.14 to 8.32	CCCC[C@H]1C(=O)N(C)[C@@H](CCCC)C(=O)N[C@@H](CCCNC(=N)N)C(=O)N[C@H](C(=O)NCC(N)=O)CSCC(=O)N[C@@H](Cc2ccc(O)cc2)C(=O)N(C)[C@@H](C)C(=O)N[C@@H](CC(N)=O)C(=O)N2C[C@@H](N)CC2C(=O)N[C@@H](Cc2cnc[nH]2)C(=O)N[C@@H](CC(C)C)C(=O)N2CCC[C@H]2C(=O)N[C@@H](Cc2c[nH]c3ccccc23)C(=O)N[C@@H](CO)C(=O)NC(Cc2csc3ccccc23)C(=O)N1C (stereo partly drawn) [Example 1046] ({CH2CO}-Y[NMeA]N[ξPro(4S-NH2)]HLPWS[ξBta][NMeNle][NMeNle]RCG-NH2; thioether N-14)
